# US6689379B1, “Transdermal therapeutic system with neutralized acrylic adhesive patch” (priority 1999, dated 2004)
# Assay: EVA copolymer film permeation (modified Franz cell), release of active substance from pressure-sensitive adhesive film
# Assay type: in vitro ADME
# Details: neutralization degrees 0 to 100% (KOH); EVA membrane; FIGS. 4, 5 and 6
# Procedure: Examinations on the thermodynamics of a model of ethylene vinyl acetate (EVA) copolymer film permeation
# For three basic pharmaceutical active agents, the release behaviour from an acid polyacrylate pressure-sensitive adhesive film in dependence from the neutralization of the adhesive and from the reagent used for this purpose was examined. All tests on EVA membrane were carried out with n=3 samples.
# To this end, the active substance-containing pressure-sensitive adhesive films were stuck on an EVA film as carrier membrane, and the amount of active agent released over time through this membrane to an aqueous medium buffered to pH 5.5 and located on the opposite side was quantified by appropriate HPLC methods. […] Since in the embodiment examples the active substance represents the only component which is low-molecular and capable of migration, it is the tendency of exclusively this active substance to exudate from the polymer matrix of the pressure-sensitive adhesive and to migrate into the acceptor medium after passing through the EVA membrane which is recorded.
# Independently of the permeation properties of human skin for such an active substance, the release tendency of the system in respect of the active substance as measured here is the most essential impetus for transdermal therapy by means of such a system. […]
structure (smiles),measurement,value
CCN(C)C(=O)Oc1cccc([C@H](C)N(C)C)c1 [rivastigmin],dependence of the permeated active substance amount / release rate on the neutralization degree,strong dependence of the effect from the neutralization degree
